Data taken from ChEMBL document CHEMBL6182926, “Design, Synthesis, and Biological Activity Evaluation of Deuterated Diphenyl Azole Alcohol-Based CYP51 Inhibitors” (J Med Chem, 2025).
In brackets after ≈: the same amount, converted by molar mass.

Columns and labels:
Format in all cases: functional
Pichia kudriavzevii = assay: Antifungal activity against Candida krusei AS 2.1045 assessed as inhibition of visible growth
Cryptococcus neoformans = assay: Antifungal activity against Cryptococcus neoformans CGMCC 2.3161 assessed as inhibition of visible growth
Candida tropicalis = assay: Antifungal activity against Candida tropicalis CGMCC 2.3739 assessed as inhibition of visible growth
Candida albicans [1] = assay: Antifungal activity against Candida albicans CPCC 400616 assessed as inhibition of visible growth
Candida albicans [2] = assay: Antifungal activity against Candida albicans SC 5314 assessed as inhibition of visible growth
Nakaseomyces glabratus = assay: Antifungal activity against Clinical isolate Candida glabrata assessed as inhibition of visible growth
Candida parapsilosis = assay: Antifungal activity against Candida parapsilosis GIM 2.190 assessed as inhibition of visible growth; conditions: Lodderomyces parapsilosis

| SMILES | MIC80 (Pichia kudriavzevii) | MIC80 (Cryptococcus neoformans) | MIC80 (Candida tropicalis) | MIC80 (Candida albicans [1]) | MIC80 (Candida albicans [2]) | MIC80 (Nakaseomyces glabratus) | MIC80 (Candida parapsilosis) |
| --- | --- | --- | --- | --- | --- | --- | --- |
| CN(Cc1ccc(-c2ccc(F)cc2)cn1)CC(O)(Cn1cncn1)c1ccc(F)cc1F (stereo unspecified) | 0.05 µg/mL (≈ 0.11 µM) | 0.1 µg/mL (≈ 0.221 µM) | 0.012 µg/mL (≈ 0.0265 µM) | 0.012 µg/mL (≈ 0.0265 µM) | 0.012 µg/mL (≈ 0.0265 µM) | 0.4 µg/mL (≈ 0.882 µM) | 0.012 µg/mL (≈ 0.0265 µM) |
| CN(Cc1ccc(-c2ccc(Cl)cc2F)cc1)CC(O)(Cn1cncn1)c1ccc(F)cc1F (stereo unspecified) | 0.012 µg/mL (≈ 0.0246 µM) | 0.012 µg/mL (≈ 0.0246 µM) | 0.006 µg/mL (≈ 0.0123 µM) | 0.006 µg/mL (≈ 0.0123 µM) | 0.006 µg/mL (≈ 0.0123 µM) | 0.025 µg/mL (≈ 0.0513 µM) | 0.006 µg/mL (≈ 0.0123 µM) |
| CN(Cc1ccc(-c2ccc(OC(F)(F)F)cc2)s1)CC(O)(Cn1cncn1)c1ccc(F)cc1F (stereo unspecified) | 0.05 µg/mL (≈ 0.0953 µM) | 0.05 µg/mL (≈ 0.0953 µM) | 0.006 µg/mL (≈ 0.0114 µM) | 0.012 µg/mL (≈ 0.0229 µM) | 0.006 µg/mL (≈ 0.0114 µM) | 0.1 µg/mL (≈ 0.191 µM) | 0.006 µg/mL (≈ 0.0114 µM) |
| CN(Cc1ccc(-c2ccc(OCC(F)(F)F)cc2)cn1)CC(O)(Cn1cncn1)c1ccc(F)cc1F (stereo unspecified) | 0.05 µg/mL (≈ 0.0937 µM) | 0.1 µg/mL (≈ 0.187 µM) | 0.012 µg/mL (≈ 0.0225 µM) | 0.012 µg/mL (≈ 0.0225 µM) | 0.012 µg/mL (≈ 0.0225 µM) | 0.1 µg/mL (≈ 0.187 µM) | 0.012 µg/mL (≈ 0.0225 µM) |
| CN(Cc1ccc(-c2ccc(OC(F)(F)F)cc2)cn1)CC(O)(Cn1cncn1)c1ccc(F)cc1F (stereo unspecified) | 0.025 µg/mL (≈ 0.0481 µM) | 0.025 µg/mL (≈ 0.0481 µM) | 0.012 µg/mL (≈ 0.0231 µM) | 0.012 µg/mL (≈ 0.0231 µM) | 0.012 µg/mL (≈ 0.0231 µM) | 0.05 µg/mL (≈ 0.0963 µM) | 0.006 µg/mL (≈ 0.0116 µM) |
| OC(CN(Cc1ccc(-c2ccc(Cl)cc2)cc1)C1CC1)(Cn1cncn1)c1ccc(F)cc1F (stereo unspecified) | > 3.2 µg/mL | > 3.2 µg/mL | > 3.2 µg/mL | > 3.2 µg/mL | > 3.2 µg/mL | > 3.2 µg/mL | > 3.2 µg/mL |
| OC(CNCc1ccc(-c2ccc(Cl)cc2)cc1)(Cn1cncn1)c1ccc(F)cc1F (stereo unspecified) | 0.05 µg/mL (≈ 0.11 µM) | 0.05 µg/mL (≈ 0.11 µM) | 0.025 µg/mL (≈ 0.055 µM) | 0.025 µg/mL (≈ 0.055 µM) | 0.025 µg/mL (≈ 0.055 µM) | 0.05 µg/mL (≈ 0.11 µM) | 0.025 µg/mL (≈ 0.055 µM) |
| CN(Cc1nc(-c2ccc(Cl)cc2)cs1)CC(O)(Cn1cncn1)c1ccc(F)cc1F (stereo unspecified) | 0.2 µg/mL (≈ 0.42 µM) | 0.8 µg/mL (≈ 1.68 µM) | 0.025 µg/mL (≈ 0.0525 µM) | 0.012 µg/mL (≈ 0.0252 µM) | 0.012 µg/mL (≈ 0.0252 µM) | 0.4 µg/mL (≈ 0.84 µM) | 0.012 µg/mL (≈ 0.0252 µM) |
| CN(Cc1ccc(-c2ccc(Cl)cc2)cn1)CC(O)(Cn1cncn1)c1ccc(F)cc1F (stereo unspecified) | 0.05 µg/mL (≈ 0.106 µM) | 0.025 µg/mL (≈ 0.0532 µM) | 0.012 µg/mL (≈ 0.0255 µM) | 0.012 µg/mL (≈ 0.0255 µM) | 0.012 µg/mL (≈ 0.0255 µM) | 0.05 µg/mL (≈ 0.106 µM) | 0.006 µg/mL (≈ 0.0128 µM) |
| CN(Cc1ccc(-c2ccc(C(F)(F)F)cc2)o1)CC(O)(Cn1cncn1)c1ccc(F)cc1F (stereo unspecified) | 0.2 µg/mL (≈ 0.406 µM) | 0.4 µg/mL (≈ 0.812 µM) | 0.012 µg/mL (≈ 0.0244 µM) | 0.025 µg/mL (≈ 0.0508 µM) | 0.025 µg/mL (≈ 0.0508 µM) | 0.2 µg/mL (≈ 0.406 µM) | 0.05 µg/mL (≈ 0.102 µM) |
| C[C@@H](N(C)Cc1ccc(-c2ccc(Cl)cc2)cc1)[C@](O)(Cn1cncn1)c1ccc(F)cc1F | 0.012 µg/mL (≈ 0.0248 µM) | 0.012 µg/mL (≈ 0.0248 µM) | 0.006 µg/mL (≈ 0.0124 µM) | 0.006 µg/mL (≈ 0.0124 µM) | 0.006 µg/mL (≈ 0.0124 µM) | 0.012 µg/mL (≈ 0.0248 µM) | 0.006 µg/mL (≈ 0.0124 µM) |
| CCc1ccc(-c2ccc(CN(C)CC(O)(Cn3cncn3)c3ccc(F)cc3F)nc2)cc1 (stereo unspecified) | 0.05 µg/mL (≈ 0.108 µM) | 0.025 µg/mL (≈ 0.0539 µM) | 0.012 µg/mL (≈ 0.0259 µM) | 0.012 µg/mL (≈ 0.0259 µM) | 0.025 µg/mL (≈ 0.0539 µM) | 0.1 µg/mL (≈ 0.216 µM) | 0.012 µg/mL (≈ 0.0259 µM) |
| CN(Cc1nc(-c2ccc(C(F)(F)F)cc2)cs1)CC(O)(Cn1cncn1)c1ccc(F)cc1F (stereo unspecified) | 0.8 µg/mL (≈ 1.57 µM) | 0.2 µg/mL (≈ 0.393 µM) | 0.025 µg/mL (≈ 0.0491 µM) | 0.025 µg/mL (≈ 0.0491 µM) | 0.012 µg/mL (≈ 0.0236 µM) | 3.2 µg/mL (≈ 6.28 µM) | 0.012 µg/mL (≈ 0.0236 µM) |
| CN(Cc1ccc(-c2ccc(Cl)cc2)c(F)c1)CC(O)(Cn1cncn1)c1ccc(F)cc1F (stereo unspecified) | 0.025 µg/mL (≈ 0.0513 µM) | 0.012 µg/mL (≈ 0.0246 µM) | 0.006 µg/mL (≈ 0.0123 µM) | 0.006 µg/mL (≈ 0.0123 µM) | 0.006 µg/mL (≈ 0.0123 µM) | 0.025 µg/mL (≈ 0.0513 µM) | 0.006 µg/mL (≈ 0.0123 µM) |
| Cc1ccc(-c2ccc(CN(C)CC(O)(Cn3cncn3)c3ccc(F)cc3F)nc2)cc1 (stereo unspecified) | 0.2 µg/mL (≈ 0.445 µM) | 0.8 µg/mL (≈ 1.78 µM) | 0.012 µg/mL (≈ 0.0267 µM) | 0.012 µg/mL (≈ 0.0267 µM) | 0.25 µg/mL (≈ 0.556 µM) | 1.6 µg/mL (≈ 3.56 µM) | 0.1 µg/mL (≈ 0.222 µM) |
| CN(Cc1ccc(-c2ccc(OC(F)(F)F)cc2)cc1)CC(O)(Cn1cncn1)c1ccc(F)cc1F (stereo unspecified) | 0.025 µg/mL (≈ 0.0482 µM) | 0.012 µg/mL (≈ 0.0231 µM) | 0.012 µg/mL (≈ 0.0231 µM) | 0.012 µg/mL (≈ 0.0231 µM) | 0.012 µg/mL (≈ 0.0231 µM) | 0.025 µg/mL (≈ 0.0482 µM) | 0.006 µg/mL (≈ 0.0116 µM) |
| COc1ccc(-c2ccc(CN(C)CC(O)(Cn3cncn3)c3ccc(F)cc3F)nc2)cc1 (stereo unspecified) | 0.1 µg/mL (≈ 0.215 µM) | 0.4 µg/mL (≈ 0.859 µM) | 0.012 µg/mL (≈ 0.0258 µM) | 0.012 µg/mL (≈ 0.0258 µM) | 0.012 µg/mL (≈ 0.0258 µM) | 0.4 µg/mL (≈ 0.859 µM) | 0.025 µg/mL (≈ 0.0537 µM) |
| CN(Cc1cnc(-c2ccc(OC(F)(F)F)cc2)s1)CC(O)(Cn1cncn1)c1ccc(F)cc1F (stereo unspecified) | 0.1 µg/mL (≈ 0.19 µM) | 0.1 µg/mL (≈ 0.19 µM) | 0.006 µg/mL (≈ 0.0114 µM) | 0.025 µg/mL (≈ 0.0476 µM) | 0.025 µg/mL (≈ 0.0476 µM) | 0.2 µg/mL (≈ 0.381 µM) | 0.05 µg/mL (≈ 0.0951 µM) |
